In ChEMBL document CHEMBL3632554, “Ligand binding studies, preliminary structure-activity relationship and detailed mechanistic characterization of 1-phenyl-6,6-dimethyl-1,3,5-triazine-2,4-diamine derivatives as inhibitors of Escherichia coli dihydrofolate reductase” (Eur J Med Chem, 2015):
Calls of active or inactive are those of the source. The calls are words filed in the database; no cut-off is given here.

Target: T1, Dihydrofolate reductase (Escherichia coli) (UniProt P0ABQ4)
T1 sequence (whole entry): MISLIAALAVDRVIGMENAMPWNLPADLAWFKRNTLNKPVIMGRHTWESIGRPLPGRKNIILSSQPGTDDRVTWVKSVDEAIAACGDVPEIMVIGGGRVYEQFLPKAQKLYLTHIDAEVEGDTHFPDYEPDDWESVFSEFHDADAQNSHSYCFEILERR
Description: Inhibition of Escherichia coli DHFR assessed as NADP formation by quadratic Morrison plot analysis

SMILES	Ki(app)
CC1(C)N=C(N)N=C(N)N1c1ccc(CCCCc2ccc(Cl)cc2Cl)cc1	inactive
CN(C)c1ccc(N2C(N)=NC(N)=NC2(C)C)cc1	inactive
